Reference: patent US20180371384A1, “METHOD FOR PRODUCING ROOTING-SUPPRESSED MALT” (SUNTORY HOLDINGS LIMITED, priority 2015, published 2018)

Assays:
[1] = test system: acrid component (hordatine glycoside); assay: Measurement of acrid components in malts (LCMS); parameters: species or system barley
From the text: In addition, the content of the acrid component in the acidic steeping malts obtained is, for example, lowered in a case of a pH of from 1.8 to 2.0 of the acidic steeping water, and the content is preferably 90% by weight or less, more preferably 80% by weight or less, even more preferably 75% by weight or less, even more preferably 70% by weight or less, even more preferably 60% by weight or less, and even more preferably 55% by weight or less, when defining the content of the acrid component in normal malts as 100% by weight. Here, the acrid component as used herein refers to a hordatine glycoside, and the content can be measured in accordance with a method set forth in the following Examples.
The amount 5.0 g of malts which are previously cryo-milled with ShakeMaster manufactured by Medical Bio Science are suspended in 40 mL of hot water at 65° C., and extraction is carried out at 65° C. for 1 hour. Thereafter, the extracts are subjected to centrifugation at 5,000 rpm for 20 minutes, and 10 mL of the supernatant is applied to PLS-2 solid phase column of GL Science (activated with methanol or the like), the column is washed with water, and thereafter fractions eluted with 20% ethanol are collected. The eluents are concentrated with SpeedVac, a concentrate is then freeze-dried, the freeze-dried product is dissolved in water, and the solution is subjected to LCMS under the following conditions, to obtain area of peak thereof.
Apparatus; LCMS-2020 manufactured by Shimadzu Corporation
Column: Polar column (Develosil-C30-UG-5. φ2×150 mm)
Mobile phase: Gradient of water containing 0.1% formic acid/acetocetonitrile[sic] • 0 to 62.5 minutes (2→10% acetonitrile) • 62.5 to 72.5 minutes (10% acetonitrile)
Column temperature: 40° C.

barley (Sukai Golden) = assay: Amount of rooting, yield and length of acrospires (Test Example 3); assay type: in vivo; conditions: for Amount of Rooting Based on 100 g of Barley: germination 5 days at 20° C.
From the text: Here, the rooting amount used herein means total weight of a root thrusting out of the surface of each grain in malts which are malted from 100 g of raw material barley.
Crops of Sukai Golden harvested in the year 2013 (99% of germination ratio) were used as domestic (Japan) two-row malting barley cultivar. and steeping conditions were the same as those in Test Example 1. A standard in which steeping of barley was earned out in pure water (pH 7.0) was defined as “normal steeping bailey (Comparative Example 2),” and a standard in which steeping of barley was earned out in an aqueous solution having a pH listed in Table 3 with phosphoric acid was defined as “acidic steeping barley (Example 2),” and three batches of malts each of which was obtained by going through the steps of steeping, germination and kilning were prepared. For each of batches of the normal malts and the acidic steeping barley obtained, the weight of rooting was obtained, and an average length of acrospires and an yield were obtained in the same manner as Test Example 1 to calculate an average thereof. In addition, each of the contents of an acrid component and β-glucan was measured as follows, and the contents of enzymes were measured in the same manner as Test Example 2. […] In addition, the germination was carried out for 5 days while keeping a temperature at 20° C. In addition, an yield was calculated as X/100 (%) from X g of a weight of roots-removed malts obtained from 100 g of barley.

endoprotease = assay: Measurement of endoprotease level in malts; parameters: species or system barley
Experimental: One gram of […] previously cryo-milled with ShakeMaster manufactured by Medical Bio Science is suspended in 2 mL of a buffer suitable for the measurement of activities of various enzymes, extraction is carried out for 60 minutes in iced water, and the extracts are then subjected to ultracentrifugation treatment (1,000 g×20 minutes), to provide the supernatant as an enzyme solution. Azo-stained casein is used as a substrate, enzyme extracts from […] thereto, and the mixture is reacted at 40° C. for 30 minutes. The reaction is stopped with a TCA solution, the solution is allowed to stand for 5 minutes, the mixture is then subjected to centrifugation to precipitate an undegraded substrate, and the supernatant is subjected to colorimetry at 366 mn (n=5). Here, an enzyme activity is defined such that an enzyme concentration of an enzyme liquid which is added to an enzyme reaction liquid to increase the absorbance by 1.0 is 1 U/mL. […] A pH of the solution is then adjusted to 8.5 with a diluted sulfuric acid, and a volume is tilled up to 100 mL.

β-amylase = assay: Measurement of β-amylase level in malts; parameters: species or system barley
Experimental: One gram of […] previously cryo-milled with ShakeMaster manufactured by Medical Bio Science is suspended in 2 mL of a buffer suitable for the measurement of activities of various enzymes, extraction is carried out for 60 minutes in iced water, and the extracts are then subjected to ultracentrifugation treatment (1,000 g×20 minutes), to provide the supernatant as an enzyme solution. Enzyme extracts from […] to Betamyl (p-nitrophenyl maltotriose; […]

α-amylase = assay: Measurement of α-amylase level in malts; parameters: species or system barley
Experimental: One gram of malts which are previously cryo-milled with ShakeMaster manufactured by Medical Bio Science is suspended in 2 mL of a buffer suitable for the measurement of activities of various enzymes, extraction is carried out for 60 minutes in iced water, and the extracts are then subjected to ultracentrifugation treatment (1,000 g×20 minutes), to provide the supernatant as an enzyme solution.
A crop a amylase kit from BIOCON is used. A blocked p-nitrophenyl maltoheptaoside (BPNPG7) is used as a substrate, enzyme extracts from malts are added thereto, and the mixture is reacted at 40° C. for 20 minutes. The reaction is stopped with Trizma base, and p-nitrophenyl maltosaccharide produced is degraded with glucoamylase, α-glucosidase. P-nitrophenol produced is subjected to phenolate color development, and the absorbance is measured at 410 nm (n=5).

## O=P(O)(O)O [Phosphoric Acid, phosphoric acid]
[1]; Initial pH 1.5, 223 mM
  Acrid Component (Based on Normal Steeping Barley, % by weight): 259 % by weight
[1]; Initial pH 1.6, 176 mM
  Acrid Component (Based on Normal Steeping Barley, % by weight): 104 % by weight
[1]; Initial pH 1.8, 82 mM
  Acrid Component (Based on Normal Steeping Barley, % by weight): 53 % by weight
[1]; Initial pH 2.0, 29 mM
  Acrid Component (Based on Normal Steeping Barley, % by weight): 80 % by weight
[1]; Initial pH 2.2, 18 mM
  Acrid Component (Based on Normal Steeping Barley, % by weight): 116 % by weight
[1]; Initial pH 2.4, 7 mM
  Acrid Component (Based on Normal Steeping Barley, % by weight): 120 % by weight
Barley (Sukai Golden); Initial pH 1.5, 223 mM
  Length of Acrospires: 0.38
  Amount of Rooting Based on 100 g of Barley: 0.03 g
Barley (Sukai Golden); Initial pH 1.6, 176 mM
  Length of Acrospires: 0.38
  Amount of Rooting Based on 100 g of Barley: 0.03 g
Barley (Sukai Golden); Initial pH 1.8, 82 mM
  Length of Acrospires: 0.38
  Amount of Rooting Based on 100 g of Barley: 0.05 g
Barley (Sukai Golden); Initial pH 2.0, 29 mM
  Length of Acrospires: 0.62
  Amount of Rooting Based on 100 g of Barley: 0.30 g
Barley (Sukai Golden); Initial pH 2.2, 18 mM
  Length of Acrospires: 0.63
  Amount of Rooting Based on 100 g of Barley: 1.51 g
Barley (Sukai Golden); Initial pH 2.4, 7 mM
  Length of Acrospires: 0.63
  Amount of Rooting Based on 100 g of Barley: 2.90 g
endoprotease; Initial pH 1.5, 223 mM
  Endoprotease (Based on Normal Steeping Barley, %): 16%
endoprotease; Initial pH 1.6, 176 mM
  Endoprotease (Based on Normal Steeping Barley, %): 20%
endoprotease; Initial pH 1.8, 82 mM
  Endoprotease (Based on Normal Steeping Barley, %): 45%
endoprotease; Initial pH 2.0, 29 mM
  Endoprotease (Based on Normal Steeping Barley, %): 65%
endoprotease; Initial pH 2.2, 18 mM
  Endoprotease (Based on Normal Steeping Barley, %): 68%
endoprotease; Initial pH 2.4, 7 mM
  Endoprotease (Based on Normal Steeping Barley, %): 35%
β-amylase; Initial pH 1.5, 223 mM
  β-Amylase (Based on Normal Steeping Barley, %): 187%
β-amylase; Initial pH 1.6, 176 mM
  β-Amylase (Based on Normal Steeping Barley, %): 128%
β-amylase; Initial pH 1.8, 82 mM
  β-Amylase (Based on Normal Steeping Barley, %): 557%
β-amylase; Initial pH 2.0, 29 mM
  β-Amylase (Based on Normal Steeping Barley, %): 400%
β-amylase; Initial pH 2.2, 18 mM
  β-Amylase (Based on Normal Steeping Barley, %): 370%
β-amylase; Initial pH 2.4, 7 mM
  β-Amylase (Based on Normal Steeping Barley, %): 221%
α-amylase; Initial pH 1.5, 223 mM
  α-Amylase (Based on Normal Steeping Barley, %): 21%
α-amylase; Initial pH 1.6, 176 mM
  α-Amylase (Based on Normal Steeping Barley, %): 25%
α-amylase; Initial pH 1.8, 82 mM
  α-Amylase (Based on Normal Steeping Barley, %): 39%
α-amylase; Initial pH 2.0, 29 mM
  α-Amylase (Based on Normal Steeping Barley, %): 90%
α-amylase; Initial pH 2.2, 18 mM
  α-Amylase (Based on Normal Steeping Barley, %): 90%
α-amylase; Initial pH 2.4, 7 mM
  α-Amylase (Based on Normal Steeping Barley, %): 91%
